Results on ten compounds are retold here after ChEMBL document CHEMBL1821660, “Synthesis and biological activity of a novel class nicotinic acetylcholine receptors (nAChRs) ligands structurally related to anatoxin-a” (Bioorg Med Chem Lett, 2011).

By IC50 is commonly meant the point on the concentration scale where inhibition reaches its midpoint. A low value points to greater potency.

The target in test [1] is Acetylcholine receptor subunit alpha (Homo sapiens, UniProt P02708). As to the kind of experiment: Binding affinity to alpha1 nAchR expressed in human TE671 cells. Type of test: cell-based, TE-671.
Sequence of Acetylcholine receptor subunit alpha (P02708 whole entry): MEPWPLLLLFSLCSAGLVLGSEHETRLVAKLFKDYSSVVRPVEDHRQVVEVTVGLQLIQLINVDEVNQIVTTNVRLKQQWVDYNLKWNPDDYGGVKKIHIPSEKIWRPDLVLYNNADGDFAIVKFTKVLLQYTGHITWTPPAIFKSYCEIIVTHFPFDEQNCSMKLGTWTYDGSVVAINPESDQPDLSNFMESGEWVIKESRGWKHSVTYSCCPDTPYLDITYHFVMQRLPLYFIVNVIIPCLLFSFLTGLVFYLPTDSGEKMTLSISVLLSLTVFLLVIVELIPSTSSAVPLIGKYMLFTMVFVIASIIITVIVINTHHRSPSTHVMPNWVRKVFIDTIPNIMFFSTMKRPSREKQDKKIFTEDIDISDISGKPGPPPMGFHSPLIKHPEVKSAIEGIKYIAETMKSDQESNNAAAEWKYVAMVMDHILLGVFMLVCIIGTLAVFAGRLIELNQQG
The target in test [2] is Neuronal acetylcholine receptor; alpha3/beta4 (Homo sapiens, UniProt P30926+P32297). As to the kind of experiment: Displacement of [3H]-epibatidine from alpha3beta4 nAChR expressed in human IMR32 cells after 2 hrs by scintillation counting. Type of test: cell-based, IMR-32.
Sequence of Neuronal acetylcholine receptor; alpha3/beta4 (P30926 whole entry): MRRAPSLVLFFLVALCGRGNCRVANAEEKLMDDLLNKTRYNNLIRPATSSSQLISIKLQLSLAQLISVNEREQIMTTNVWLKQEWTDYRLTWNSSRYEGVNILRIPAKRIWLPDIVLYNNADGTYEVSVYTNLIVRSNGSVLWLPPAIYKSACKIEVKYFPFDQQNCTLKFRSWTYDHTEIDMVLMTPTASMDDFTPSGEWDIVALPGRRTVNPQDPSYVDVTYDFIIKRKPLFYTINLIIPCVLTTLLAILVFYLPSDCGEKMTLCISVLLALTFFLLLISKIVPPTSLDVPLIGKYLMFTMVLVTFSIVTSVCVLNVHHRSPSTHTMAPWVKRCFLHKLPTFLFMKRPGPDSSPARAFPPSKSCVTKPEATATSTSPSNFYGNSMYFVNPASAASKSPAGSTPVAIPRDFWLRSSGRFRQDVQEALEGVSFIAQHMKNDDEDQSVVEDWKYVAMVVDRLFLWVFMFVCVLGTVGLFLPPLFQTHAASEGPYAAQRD
Sequence of Neuronal acetylcholine receptor; alpha3/beta4 (P32297 whole entry): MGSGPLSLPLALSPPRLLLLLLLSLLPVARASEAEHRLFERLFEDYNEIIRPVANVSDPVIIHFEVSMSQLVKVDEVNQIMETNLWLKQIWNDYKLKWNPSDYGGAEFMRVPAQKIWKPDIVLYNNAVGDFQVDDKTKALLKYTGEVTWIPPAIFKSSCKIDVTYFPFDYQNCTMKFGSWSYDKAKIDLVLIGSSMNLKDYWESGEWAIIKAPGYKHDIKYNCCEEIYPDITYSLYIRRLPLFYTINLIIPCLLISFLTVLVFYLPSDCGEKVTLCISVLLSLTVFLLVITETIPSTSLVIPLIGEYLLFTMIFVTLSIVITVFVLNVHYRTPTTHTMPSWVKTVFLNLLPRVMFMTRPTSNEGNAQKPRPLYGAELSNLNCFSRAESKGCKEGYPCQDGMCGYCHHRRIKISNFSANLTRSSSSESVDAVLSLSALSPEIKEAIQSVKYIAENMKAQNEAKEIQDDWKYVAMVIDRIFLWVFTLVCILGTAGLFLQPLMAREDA
The nature of test [3]: Displacement of [3H]-cytisine from nAChR in rat brain membranes. Type of test: cell membranes. A general note: In a radioligand displacement assay an active substance lowers the binding of a labelled ligand.
In test [4] the target is Neuronal acetylcholine receptor subunit alpha-7 (Homo sapiens, UniProt P36544). As to the kind of experiment: Displacement of [125I]-alpha-bungarotoxin from alpha7 nAchR expressed in rat GH4C1 cells. It is filed as cell-based, GH4-C1.
Sequence of Neuronal acetylcholine receptor subunit alpha-7 (P36544 whole entry): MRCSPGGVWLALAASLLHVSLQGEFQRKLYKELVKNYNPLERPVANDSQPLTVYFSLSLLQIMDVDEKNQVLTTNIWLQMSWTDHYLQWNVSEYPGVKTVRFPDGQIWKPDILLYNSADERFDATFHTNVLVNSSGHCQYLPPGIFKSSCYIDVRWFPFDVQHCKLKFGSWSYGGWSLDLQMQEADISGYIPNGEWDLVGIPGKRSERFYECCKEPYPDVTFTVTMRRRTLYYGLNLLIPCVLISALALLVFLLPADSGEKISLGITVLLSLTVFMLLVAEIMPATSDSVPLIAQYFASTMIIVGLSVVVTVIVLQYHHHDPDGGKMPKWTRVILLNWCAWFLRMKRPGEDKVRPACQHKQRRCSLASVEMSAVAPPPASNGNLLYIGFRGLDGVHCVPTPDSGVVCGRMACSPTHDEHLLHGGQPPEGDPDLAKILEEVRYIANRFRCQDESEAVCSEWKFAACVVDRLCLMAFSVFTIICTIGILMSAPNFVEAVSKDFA

Molecules are shown by their SMILES.

As for `CC(C)c1cc(C2=CCC[C@@H]3CC[C@H]2N3)on1` (racemic), the IC50 in test [1] is 5.5 µM; in test [2], 2.9 µM; in test [3] it was 2.1 µM; in test [4], 15.1 µM.

As for `CCc1cc(C2=CCC[C@@H]3CC[C@H]2N3)on1` (racemic), the IC50 in test [1] turned out to be 4.2 µM; in test [2], 1.8 µM; in test [3] it was 0.0122 µM; in test [4], 4.6 µM.

For `Cc1cc([C@]2(O)CCC[C@@H]3CC[C@H]2N3)on1` (racemic), the IC50 in test [1], in test [2], in test [3] and in test [4] was over 10 µM each time.

Regarding `CCOC(=O)c1noc2c1[C@H]1CC[C@@H](CC2)N1` (racemic), the IC50 in test [1], in test [2], in test [3] and in test [4] was over 10 µM throughout.

Regarding `Cc1cc(C2=CCC[C@@H]3CC[C@H]2N3)on1` (racemic), the IC50 was over 10 µM in test [2], 0.0091 µM in test [3] and over 10 µM in test [4].

Regarding `C1=C(c2cc(-c3ccccc3)no2)[C@H]2CC[C@@H](CC1)N2` (racemic), the half-inhibitory concentration (IC50) is 7.8 µM in test [1], 1.05 µM in test [2], over 10 µM in test [3] and over 10 µM in test [4].

For the compound `Cc1noc2c1[C@H]1CC[C@@H](CC2)N1` (racemic), the IC50 in test [1], in test [2], in test [3] and in test [4] was over 10 µM throughout.

For the compound `CN1CCC[C@H]1c1cccnc1` [NICOTINE], the IC50 in test [3] worked out at 0.0047 µM.

`CCOC(=O)c1cc(C2=CCC[C@@H]3CC[C@H]2N3)on1` (racemic): the IC50 in test [1], in test [2], in test [3] and in test [4] was over 10 µM throughout.

For `Cc1cc([C@@]2(O)CCC[C@@H]3CC[C@H]2N3)on1` (racemic), the IC50 in test [1], in test [2], in test [3] and in test [4] was over 10 µM throughout.
